Results as given in patent US20240043439A1, “COMPOUNDS AS C5AR INHIBITORS” (Kira Pharmaceuticals (Suzhou) Ltd., priority 2020, published 2024).

Key:
C5aR [1] = target: T1, C5aR (Homo sapiens (Human), UniProt P21730); assay: Inhibition of C5a-C5aR binding determined by cell migration assay (U937/C5aR cells); assay type: cell-based; settings: U937/C5aR cell migration towards human C5a, 180 min
Experimental: Migration assay was performed by using polycarbonate membrane with 3.0 µm pore (Corning). U937/C5aR cells were collected and washed twice by PBS; cells were suspended in Hank's balanced salt solution (HBSS)+1% FBS buffer at the density of 6×10^6 cells/ml. Cells were premixed with compound and added to insert well, ligand human C5a and compound were added to bottom well in order, gently mix, incubate for 30 min at 37° C., […]. Put insert plate into bottom well, migrate for 180 min at 37° C., […]. Gently remove the insert well, add 50 μl CellTiter-Glo (Promega), gently shaking for 5 min at room temperature, transfer 150 μl mixture to black plate and read luminescence intensity by
microplate reader (BioTek).

[2] = target: human C5a receptor (C5aR) (Homo sapiens (Human), UniProt P21730); assay: Inhibition of C5a-C5aR binding (biotinylated human C5a, U937/C5aR cells, FACS)
Procedure, shortened: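 U937 cells stably expressing human C5aR, 3×10^6 cells/ml in PBS+0.1% BSA, were co-incubated with compound and biotinylated human C5a (30 nM, working solution) on ice for 120 min. Bound ligand was stained with FITC-streptavidin for 30 min on ice and read by flow cytometry.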

C5aR [3] = target: T1, C5aR; assay: Calcium mobilization (U937/C5aR or HEK293/C5aR cells, FLIPR); assay type: cell-based; settings: agonist human C5a at EC80, FLIPR
Procedure, shortened: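 U937 or HEK293 cells expressing human C5aR, plated overnight, then preincubated 60 min with compound. After Fluo-4 Direct dye loading (50 min at 37 °C, 10 min at room temperature), intracellular calcium rise on FLIPR was triggered by human C5a agonist at EC80.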

human C5a receptor (C5aR), sequence (P21730 whole entry): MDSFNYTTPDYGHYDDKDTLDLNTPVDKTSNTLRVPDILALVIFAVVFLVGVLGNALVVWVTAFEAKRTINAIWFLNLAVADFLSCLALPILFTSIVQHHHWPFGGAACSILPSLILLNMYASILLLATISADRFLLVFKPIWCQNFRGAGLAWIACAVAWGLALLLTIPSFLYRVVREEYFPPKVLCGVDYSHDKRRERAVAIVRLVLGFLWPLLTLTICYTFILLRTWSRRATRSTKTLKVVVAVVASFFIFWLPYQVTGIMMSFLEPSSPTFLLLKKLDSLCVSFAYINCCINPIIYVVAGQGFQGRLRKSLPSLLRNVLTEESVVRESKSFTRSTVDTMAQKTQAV
T1 sequence (P21730 whole entry): as above

Structure (SMILES)	IC50 (C5aR [1])	IC50 [2]	IC50 (C5aR [3])
Cc1cccc(F)c1C(=O)N1[C@@H]2CCC[C@@H]2C[C@H](C(=O)Nc2cccc(S(C)(=O)=O)c2)[C@@H]1c1ccc(NC2CCCC2)cc1 (racemic) [Compound 70, cis-2-(4-(cyclopentylamino)phenyl)-1-(2-fluoro-6-methylbenzoyl)-N-(3-(methylsulfonyl)phenyl)octahydro-1H-cyclopenta[b]pyridine-3-carboxamide]	500 to 2000 nM	500 to 2000 nM	2000 to 10000 nM
Cc1ccc(NC(=O)[C@H]2CC[C@@H]3CCc4cccc(F)c4C(=O)N3C2c2ccc(NC3CCCC3)cc2)cc1C(F)(F)F (relative stereo) [Compound 41, cis-4-(4-(cyclopentylamino)phenyl)-7-fluoro-N-(4-methyl-3-(trifluoromethyl)phenyl)-6-oxo-1,2,3,4,6,11,12,12a-octahydrobenzo[e]pyrido[1,2-a]azepine-3-carboxamide]	50 to 500 nM	500 to 2000 nM	2000 to 10000 nM
Cc1cccc(F)c1C(=O)N1C2CCC[C@@H]2C[C@H](C(=O)Nc2cccc(C(F)(F)F)c2)[C@@H]1c1ccc(NC2CCCC2)cc1 (relative stereo) [Compound 46, cis-2-(4-(cyclopentylamino)phenyl)-1-(2-fluoro-6-methylbenzoyl)-N-(3-(trifluoromethyl)phenyl)octahydro-1H-cyclopenta[b]pyridine-3-carboxamide]	50 to 500 nM	50 to 500 nM	50 to 500 nM
Cc1cccc(F)c1C(=O)N1C2CCC[C@@H]2C[C@H](C(=O)Nc2cccnc2)[C@@H]1c1ccc(NC2CCCC2)cc1 (relative stereo) [Compound 57, cis-2-(4-(cyclopentylamino)phenyl)-1-(2-fluoro-6-methylbenzoyl)-N-(pyridin-3-yl)octahydro-1H-cyclopenta[b]pyridine-3-carboxamide]	50 to 500 nM	50 to 500 nM	2000 to 10000 nM
Cc1cccc(F)c1C(=O)N1C(c2ccc(NC3CCCC3)cc2)C(C(=O)Nc2ccc3c(c2)CCN(C)C3)C[C@@H]2CCC[C@@H]21 (relative stereo) [Compound 77, cis-2-(4-(cyclopentylamino)phenyl)-1-(2-fluoro-6-methylbenzoyl)-N-(2-methyl-1,2,3,4-tetrahydroisoquinolin-6-yl)octahydro-1H-cyclopenta[b]pyridine-3-carboxamide]	> 5000 nM	2000 to 5000 nM	2000 to 10000 nM
Cc1cccc(F)c1C(=O)N1C(c2ccc(NC3CCCC3)cc2)C(C(=O)Nc2cnc3cnn(C)c3c2)C[C@@H]2CCC[C@@H]21 (relative stereo) [Compound 78, cis-2-(4-(cyclopentylamino)phenyl)-1-(2-fluoro-6-methylbenzoyl)-N-(1-methyl-1H-pyrazolo[4,3-b]pyridin-6-yl)octahydro-1H-cyclopenta[b]pyridine-3-carboxamide]	50 to 500 nM	50 to 500 nM	500 to 2000 nM
Cc1ccc(NC(=O)C2C[C@@H]3CCC[C@@H]3N(C(=O)c3c(C)cccc3F)C2c2ccc(NC3CCOCC3)cc2)cc1C(F)(F)F (relative stereo) [Compound 88, cis-1-(2-fluoro-6-methylbenzoyl)-N-(4-methyl-3-(trifluoromethyl)phenyl)-2-(4-((tetrahydro-2H-pyran-4-yl)amino)phenyl)octahydro-1H-cyclopenta[b]pyridine-3-carboxamide]	< 50 nM	50 to 500 nM	< 50 nM
Cc1cccc(F)c1C(=O)N1C2CCC[C@@H]2C[C@H](C(=O)Nc2ccc3cccnc3c2)[C@@H]1c1ccc(NC2CCOCC2)cc1 (relative stereo) [Compound 90, cis-1-(2-fluoro-6-methylbenzoyl)-N-(quinolin-7-yl)-2-(4-((tetrahydro-2H-pyran-4-yl)amino)phenyl)octahydro-1H-cyclopenta[b]pyridine-3-carboxamide]	50 to 500 nM	50 to 500 nM	50 to 500 nM
Cc1ccc(NC(=O)C2C[C@@H]3CCC[C@@H]3N(C(=O)c3cocn3)C2c2ccc(NC3CCCC3)cc2)cc1C(F)(F)F (relative stereo) [Compound 110, cis-2-(4-(cyclopentylamino)phenyl)-N-(4-methyl-3-(trifluoromethyl)phenyl)-1-(oxazole-4-carbonyl)octahydro-1H-cyclopenta[b]pyridine-3-carboxamide]	50 to 500 nM	50 to 500 nM	> 10000 nM
Cc1ccc(NC(=O)C2C[C@H]3CCC[C@H]3N(C(=O)C3CCOCC3)[C@H]2c2ccc(NC3CCCC3)cc2)cc1C(F)(F)F (relative stereo) [Compound 111, cis-2-(4-(cyclopentylamino)phenyl)-N-(4-methyl-3-(trifluoromethyl)phenyl)-1-(tetrahydro-2H-pyran-4-carbonyl)octahydro-1H-cyclopenta[b]pyridine-3-carboxamide]	50 to 500 nM	50 to 500 nM	2000 to 10000 nM
Cc1ccc(NC(=O)C2C[C@H]3CCC[C@H]3N(C(=O)c3cscn3)C2c2ccc(NC3CCCC3)cc2)cc1C(F)(F)F (relative stereo) [Compound 114, cis-2-(4-(cyclopentylamino)phenyl)-N-(4-methyl-3-(trifluoromethyl)phenyl)-1-(thiazole-4-carbonyl)octahydro-1H-cyclopenta[b]pyridine-3-carboxamide]	50 to 500 nM	< 50 nM	> 10000 nM
Cc1ccc(NC(=O)C2C[C@H]3CCC[C@H]3N(C(=O)c3cncnc3)C2c2ccc(NC3CCCC3)cc2)cc1C(F)(F)F (relative stereo) [Compound 115, cis-2-(4-(cyclopentylamino)phenyl)-N-(4-methyl-3-(trifluoromethyl)phenyl)-1-(pyrimidine-5-carbonyl)octahydro-1H-cyclopenta[b]pyridine-3-carboxamide]	50 to 500 nM	50 to 500 nM	> 10000 nM
Cc1ccc(NC(=O)C2C[C@@H]3COC[C@@H]3N(C(=O)c3c(C)cccc3F)C2c2ccc(NC3CCCC3)cc2)cc1C(F)(F)F (relative stereo) [Compound 118, cis-2-(4-(cyclopentylamino)phenyl)-1-(2-fluoro-6-methylbenzoyl)-N-(4-methyl-3-(trifluoromethyl)phenyl)octahydrofuro[3,4-b]pyridine-3-carboxamide]	< 50 nM	< 50 nM	50 to 500 nM
Cc1cccc(F)c1C(=O)N1C(c2ccc(NC3CCCC3)cc2)C(C(=O)Nc2ccc3c(cnn3C)c2)C[C@@H]2COC[C@@H]21 (relative stereo) [Compound 121, cis-2-(4-(cyclopentylamino)phenyl)-1-(2-fluoro-6-methylbenzoyl)-N-(1-methyl-1H-indazol-5-yl)octahydrofuro[3,4-b]pyridine-3-carboxamide]	50 to 500 nM	50 to 500 nM	50 to 500 nM
Cc1ccc(NC(=O)C2C[C@@H]3COC[C@@H]3N(C(=O)c3c(C)cccc3F)C2c2ccc(CN3CCOCC3(C)C)cc2)cc1C(F)(F)F (relative stereo) [Compound 141, cis-2-(4-((3,3-dimethylmorpholino)methyl)phenyl)-1-(2-fluoro-6-methylbenzoyl)-N-(4-methyl-3-(trifluoromethyl)phenyl)octahydrofuro[3,4-b]pyridine-3-carboxamide]	500 to 2000 nM	50 to 500 nM	2000 to 10000 nM
